# In patent US5635593A (priority 1995, dated 1997):
# Numbered stars: 1 amine (or outer) side, 2 acyl side, 3 side chain; on linkers, the order of the positions; unused ones are H or OH. Bridge positions count the residues as written; N and C are the ends. Square brackets hold non-standard residues; d marks the D form. Peptide text beside a SMILES is read from it. I, II: the chains in the order shown. BMH = O=C1CC([*:1])C(=O)N1CCCCCCN1C(=O)CC([*:2])C1=O; Oic = O=C(O)[C@@H]1C[C@@H]2CCCC[C@@H]2N1; Hyp = O=C(O)[C@@H]1C[C@@H](O)CN1; dTic = O=C(O)[C@H]1Cc2ccccc2CN1
# What was measured:
# BK2 -receptor = target: T1, BK2 -receptor (Rattus norvegicus, UniProt P25023); experiment: rat uterus (RU) in vitro, antagonism of BK; settings: against BK
# T1 construct: guinea-pig ileum (GPI), rat uterus (RU) and rabbit jugular vein (RJV); from tissue; host or cells: rat uterus
# T1 sequence (P25023 1-396): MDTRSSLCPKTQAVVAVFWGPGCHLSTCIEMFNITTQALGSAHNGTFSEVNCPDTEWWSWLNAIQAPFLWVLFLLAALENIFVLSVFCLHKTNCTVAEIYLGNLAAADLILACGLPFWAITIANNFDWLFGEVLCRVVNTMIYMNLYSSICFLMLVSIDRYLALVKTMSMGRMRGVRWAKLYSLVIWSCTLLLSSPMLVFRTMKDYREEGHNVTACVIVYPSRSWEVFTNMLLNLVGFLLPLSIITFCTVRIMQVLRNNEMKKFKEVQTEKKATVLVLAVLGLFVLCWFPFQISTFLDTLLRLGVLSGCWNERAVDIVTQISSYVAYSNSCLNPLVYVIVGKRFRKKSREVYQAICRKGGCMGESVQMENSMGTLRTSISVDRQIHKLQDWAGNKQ
# Protocol: Thus, in vitro studies were performed on standard assay systems, namely, guinea-pig ileum (GPI), rat uterus (RU) and rabbit jugular vein (RJV). […] The potency of each compound was assessed as a pA2 value according to the method of Arunlakshana & Schild, Br. J. Pharmacol. Chemother., 14:48-58 (1959). The pA2 can be defined as the negative logarithm of the molar concentration of the antagonist in the presence of which the potency of the agonist is reduced two-fold, i.e., twice the amount of agonist is required to produce a given response in the presence of, than in the absence of, the antagonist. A high potency of antagonism is indicated by a high pA2 value. i.e., a low concentration of antagonist is effective.
# The percentage recovery (% Rec) was also determined for compounds with respect to each assay.
# With respect to duration of activity, it is noted that after exposure to the highest concentration of antagonist, each tissue was washed extensively and then assessed for recovery from the antagonist effect.
# Potency in the rat uterus assay was assessed as described above and pA2 values determined.
# BK2 receptor = target: T2, BK2 receptor (Oryctolagus cuniculus, UniProt Q28642); experiment: blood pressure response to BK2 agonist in LPS-pretreated rabbits; format: in vivo, rabbit; parameters: key to observed antagonist activity BK2, 1 / observed antagonist activity BK2, 3 / observed antagonist activity BK2, 10: +: complete blockade of the blood pressure response to the appropriate agonist; ±: partial blockade; -: no observable effect at the dose indicated; settings: for observed antagonist activity BK2, 1: 1 μg kg^-1 min^-1; for observed antagonist activity BK2, 1 / observed antagonist activity BK2, 3 / observed antagonist activity BK2, 10: rabbits given LPS (10 μg) 20 hours before; for observed antagonist activity BK2, 3: 3 μg kg^-1 min^-1; for observed antagonist activity BK2, 10: 10 μg kg^-1 min^-1
# T2 construct: from tissue; host or cells: whole animal (rabbit, LPS-pretreated), blood pressure response
# T2 sequence (Q28642 1-367): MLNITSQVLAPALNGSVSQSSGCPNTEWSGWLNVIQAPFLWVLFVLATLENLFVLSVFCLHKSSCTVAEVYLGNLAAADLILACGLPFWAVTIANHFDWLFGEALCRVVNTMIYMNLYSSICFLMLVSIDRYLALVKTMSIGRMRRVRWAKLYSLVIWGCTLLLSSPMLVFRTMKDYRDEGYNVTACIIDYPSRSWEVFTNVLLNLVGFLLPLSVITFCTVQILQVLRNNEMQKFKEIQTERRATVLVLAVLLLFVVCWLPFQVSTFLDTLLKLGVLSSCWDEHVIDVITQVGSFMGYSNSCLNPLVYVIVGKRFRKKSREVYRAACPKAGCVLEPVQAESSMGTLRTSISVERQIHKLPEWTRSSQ
# From the text: (§1) That heterodimeric constructs block the activities attributable to two different receptor populations simultaneously when administered to an intact animal has been known using a standard assay of BK2 and BK1 receptor activity (see, deBlois, Bouthillier, and Marceau, Brit. J. Pharm., 103, 1057-1066, 1991). In normal rabbits, no changes in systemic arterial blood pressure can be detected in response to challenges with BK1 receptor agonists. There is, however, a predictable and reproducible response to BK2 agonists constituatively present. After stimulation with LPS BK1 receptor activity will develop over time such that profound responses to doses of BK1 agonists that were previously inconsequential in nature are observed after a 3-4 hour period. Responses to BK2 agonists are unchanged in these animals. At this point, one can test directly the ability to block both BK1 and BK2 mediated reductions in systemic blood pressure simultaneously with a heterodimeric antagonist.
# (§2) FIGS. 8a, b and c comprise actual blood pressure traces from a series of experiments designed to illustrate the ability of a representative heterodimer (CP-0364) to block both BK1 - and BK2 - mediated hypotensive responses simultaneously.
# (§3) The expected antagonist activity is based on the data summarized in Tables K and L. The in vivo experimental data reported are qualitative measurements of antagonist activity at three different doses (1, 3 and 10 μg kg^-1 min^-1) in rabbits given a sub-lethal dose of LPS (10 μg), 20 hours before initiation of the experiment.
# BK1 receptor = target: T3, BK1 receptor (Oryctolagus cuniculus, UniProt P48748); experiment: blood pressure response to BK1 agonist in LPS-pretreated rabbits; format: in vivo, rabbit; parameters: from tissue; host or cells: whole animal (rabbit, LPS-pretreated), blood pressure response; key to observed antagonist activity BK1, 1 / observed antagonist activity BK1, 3 / observed antagonist activity BK1, 10: +: complete blockade of the blood pressure response to the appropriate agonist; ±: partial blockade; -: no observable effect at the dose indicated; settings: for observed antagonist activity BK1, 1: 1 μg kg^-1 min^-1; for observed antagonist activity BK1, 1 / observed antagonist activity BK1, 3 / observed antagonist activity BK1, 10: rabbits given LPS (10 μg) 20 hours before; for observed antagonist activity BK1, 3: 3 μg kg^-1 min^-1; for observed antagonist activity BK1, 10: 10 μg kg^-1 min^-1
# T3 sequence (P48748 1-352): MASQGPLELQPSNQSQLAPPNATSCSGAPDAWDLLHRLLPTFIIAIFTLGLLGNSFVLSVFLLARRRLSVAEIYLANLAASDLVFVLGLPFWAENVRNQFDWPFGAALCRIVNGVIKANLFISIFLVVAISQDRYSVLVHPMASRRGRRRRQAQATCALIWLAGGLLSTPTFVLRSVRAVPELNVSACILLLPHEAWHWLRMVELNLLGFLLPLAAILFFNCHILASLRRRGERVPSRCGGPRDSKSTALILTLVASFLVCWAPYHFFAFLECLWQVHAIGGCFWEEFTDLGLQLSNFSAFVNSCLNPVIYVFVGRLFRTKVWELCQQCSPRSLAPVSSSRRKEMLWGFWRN
# From the text: as §1, §2, §3
# [1] = rabbits after endotoxin pre-treatment, agonist i.v. bolus
SMILES,pA2 rat uterus (BK2) (BK2 -receptor),"observed antagonist activity BK2, 1 (BK2 receptor)","observed antagonist activity BK2, 3 (BK2 receptor)","observed antagonist activity BK2, 10 (BK2 receptor)","observed antagonist activity BK1, 1 (BK1 receptor)","observed antagonist activity BK1, 3 (BK1 receptor)","observed antagonist activity BK1, 10 (BK1 receptor)",block of BK2-mediated hypotensive response (FIG. 8) (BK2 receptor; [1]),block of BK1-mediated hypotensive response (FIG. 8) (BK1 receptor; [1])
"CC(C)C[C@H](NC(=O)[C@@H](Cc1ccccc1)NC(=O)[C@H](CSC1CC(=O)N(CCCCCCN2C(=O)CC(SC[C@H](N)C(=O)N[C@@H](Cc3ccc(O)cc3)C(=O)N[C@H](Cc3c[nH]c4ccccc34)C(=O)N[C@H](C(=O)N[C@H](Cc3c[nH]c4ccccc34)C(=O)N[C@H](Cc3c[nH]c4ccccc34)C(=O)N[C@@H](CCCNC(=N)N)C(N)=O)C(C)C)C2=O)C1=O)NC(=O)[C@H](Cc1ccccc1)NC(=O)CNC(=O)[C@@H]1C[C@@H](O)CN1C(=O)[C@@H]1CCCN1C(=O)[C@H](CCCNC(=N)N)NC(=O)[C@H](N)CCCNC(=N)N)C(=O)N[C@@H](CCCNC(=N)N)C(=O)O (stereo partly shown) [CP-0411] (HELM PEPTIDE1{[dR].R.P.[Hyp].G.F.C.[dF].L.R}|PEPTIDE2{C.Y.[dW].V.[dW].[dW].R.[am]}|CHEM1{[O=C1CC([*:1])C(=O)N1CCCCCCN1C(=O)CC([*:2])C1=O]}$PEPTIDE1,CHEM1,7:R3-1:R1|PEPTIDE2,CHEM1,1:R3-1:R2$$$V2.0)",7.5 ± 0.1,,,,,,,,
"CC(C)C[C@H](NC(=O)[C@@H](Cc1ccccc1)NC(=O)[C@H](CSC1CC(=O)N(CCCCN2C(=O)CC(SC[C@H](NC(=O)[C@H](Cc3ccccc3)NC(=O)CNC(=O)[C@@H]3C[C@@H](O)CN3C(=O)[C@@H]3CCCN3C(=O)[C@H](CCCNC(=N)N)NC(=O)[C@H](N)CCCNC(=N)N)C(=O)N[C@H](Cc3ccccc3)C(=O)N[C@@H](CC(C)C)C(=O)N[C@@H](CCCNC(=N)N)C(=O)O)C2=O)C1=O)NC(=O)[C@H](Cc1ccccc1)NC(=O)CNC(=O)[C@@H]1C[C@@H](O)CN1C(=O)[C@@H]1CCCN1C(=O)[C@H](CCCNC(=N)N)NC(=O)[C@H](N)CCCNC(=N)N)C(=O)N[C@@H](CCCNC(=N)N)C(=O)O (stereo partly shown) [CP-0209] (HELM PEPTIDE1{[dR].R.P.[Hyp].G.F.C.[dF].L.R}|PEPTIDE2{[dR].R.P.[Hyp].G.F.C.[dF].L.R}|CHEM1{[O=C1CC([*:1])C(=O)N1CCCCN1C(=O)CC([*:2])C1=O]}$PEPTIDE1,CHEM1,7:R3-1:R1|PEPTIDE2,CHEM1,7:R3-1:R2$$$V2.0)",8.2 ± 0.2,,,,,,,,
"CC(C)C[C@H](NC(=O)[C@@H]1CCCN1C(=O)[C@H](CO)NC(=O)[C@H](Cc1ccccc1)NC(=O)CNC(=O)[C@@H]1CCCN1C(=O)[C@@H]1CCCN1C(=O)[C@H](CCCNC(=N)N)NC(=O)[C@@H](N)CCCCN)C(=O)O [CP-0298, des ARG^9-[LYS^0, LEU^8]-BK, reference compound]",,-,-,-,+,+,+,,
"CC(C)C[C@H](NC(=O)[C@@H]1CCCN1C(=O)[C@H](CO)NC(=O)[C@H](Cc1ccccc1)NC(=O)CNC(=O)[C@@H]1C[C@@H](O)CN1C(=O)[C@@H]1CCCN1C(=O)[C@H](CSC1CC(=O)N(CCCCCCN2C(=O)CC(SC[C@H](NC(=O)[C@H](Cc3ccccc3)NC(=O)CNC(=O)[C@@H]3C[C@@H](O)CN3C(=O)[C@@H]3CCCN3C(=O)[C@H](CCCNC(=N)N)NC(=O)[C@H](N)CCCNC(=N)N)C(=O)N[C@H](Cc3ccccc3)C(=O)N[C@@H](CC(C)C)C(=O)N[C@@H](CCCNC(=N)N)C(=O)O)C2=O)C1=O)NC(=O)[C@H](N)CCCNC(=N)N)C(=O)O (stereo partly shown) [CP-0364] (HELM PEPTIDE1{[dR].R.P.[Hyp].G.F.C.[dF].L.R}|PEPTIDE2{[dR].C.P.[Hyp].G.F.S.P.L}|CHEM1{[O=C1CC([*:1])C(=O)N1CCCCCCN1C(=O)CC([*:2])C1=O]}$PEPTIDE1,CHEM1,7:R3-1:R1|PEPTIDE2,CHEM1,2:R3-1:R2$$$V2.0; N-terminus and C-terminus assumed)",,+,+,+,+,+,+,capable of blocking the response profile to both agonists simultaneously,capable of blocking the response profile to both agonists simultaneously
N=C(N)NCCC[C@@H](N)C(=O)N[C@@H](CCCNC(=N)N)C(=O)N1CCC[C@H]1C(=O)N1C[C@H](O)C[C@H]1C(=O)NCC(=O)N[C@@H](Cc1ccccc1)C(=O)N[C@@H](CSC1CC(=O)N(CCCCCCN2C(=O)CC(SC[C@H](NC(=O)[C@H](N)CCCNC(=N)N)C(=O)N3CCC[C@H]3C(=O)N3C[C@H](O)C[C@H]3C(=O)NCC(=O)N[C@@H](Cc3ccccc3)C(=O)N[C@@H](CO)C(=O)N3Cc4ccccc4C[C@@H]3C(=O)N3[C@H](C(=O)O)C[C@@H]4CCCC[C@@H]43)C2=O)C1=O)C(=O)N1Cc2ccccc2C[C@@H]1C(=O)N1[C@H](C(=O)N[C@@H](CCCNC(=N)N)C(=O)O)C[C@@H]2CCCC[C@@H]21 (stereo partly shown) [CP-0365] (I: H-[dR]RP[Hyp]GFC[dTic][Oic]R-OH / II: H-[dR]CP[Hyp]GFS[dTic][Oic]-OH; linker I:7-II:2 via BMH; N-terminus and C-terminus assumed),,-,+,+,-,+,+,,
